{"source": "patent US20150323548A1", "about": "“METHODS OF MONITORING THE MODULATION OF THE KINASE ACTIVITY OF FIBROBLAST GROWTH FACTOR RECEPTOR AND USES OF SAID METHODS” (Novartis AG, priority 2008, published 2015)", "key": {"FGF23 [1]": {"system": "FGF23", "conditions": "for mean plasma FGF23 increase over baseline: melanoma patients; for Increase of FGF23 levels over basal levels (up to): 400 mg daily", "procedure": "Blood sampling was performed at the indicated day and cycle. FGF23 levels were measured in plasma. The values given for C1D1 are the baseline values.\n(§1) Methods: Patients were treated orally with 200, 300, 400 or 500 mg/day on a once daily continuous dose schedule. […] Plasma samples from 43 patients were collected. […] Plasma FGF23 was evaluated by ELISA"}, "clinical": {"test": "clinical", "conditions": "human, in vivo, po", "procedure": "as §1"}, "FGF23 [2]": {"system": "FGF23", "test": "FGF23 ELISA in plasma of mRCC patients", "assay_type": "in vivo, human"}, "[3]": {"system": "FRS2 tyrosine phosphorylation (read-out for FGFR activity)", "test": "Ex vivo FRS2 tyrosine phosphorylation in RT112 tumor xenografts in rats (Western blot)", "design": "species or system rat", "conditions": "single oral 10, 25 or 50 mg/kg; tumors dissected 3 h post-treatment", "procedure": "FIG. 12 is a photograph showing the ex vivo analysis of RT112 tumor xenografts. Tumors were dissected 3 h after compound administration. Tumor tissue was lysed and FRS2 tyrosine phosphorylation levels were analysed by western blot using an antibody from Cell Signaling (#3864) that detects FRS2 when phosphorylated on Tyr196. As a loading control, membrane was probed with an antibody from Sigma (#T4026) that detects b-tubulin.\nCompound Formulation and Animal Treatment. […] The application volumes were 5 ml/kg.\nEx vivo analysis of RT112 tumor xenografts: RT112 bladder cancer cells express high levels of FGFR3, the activity of which can be monitored in these cells by measuring changes in FRS2 tyrosine phosphorylation, a substrate of the FGFRs. The tumor material was pulverized using a swing mill (RETSCH, either MM2 or MM200). Aliquots of tumor powder (50 mg) were lysed in ice-chilled lysis buffer containing 50 mM Tris pH 7.5, 150 mM NaCl, 1 mM EGTA, 5 mM EDTA, 1% Triton, 2 mM NaVanadate, 1 mM PMSF and protease inhibitors cocktail Roche #11873580001). Lysates were clarified by centrifugation at 12000×g for 15 min and protein concentration was determined using the DC protein assay reagents (Bio Rad #500-0116) and a BSA standard. Total cell lysates were subjected to SDS-PAGE and proteins blotted onto PVDF membranes. […]"}, "FGF23 [4]": {"system": "FGF23", "test": "FGF23 ELISA in serum of wistar rats", "assay_type": "in vivo, rat", "conditions": "single oral 50 mg/kg; 24 h post administration; p<0.01", "procedure": "Data are presented as means of n=6, ±SD.\nAnimals. Experiments were performed in female wistar rats furth WF/Ico\nThe application volumes were 5 ml/kg.\nBlood samples were drawn sublingually at 24 h post-compound administration. Plasma, as well as serum samples were prepared from each blood sample."}, "[5]": {"system": "phosphorylated and activated FGFR", "test": "Immunohistochemistry of pFGFR in melanoma tumor biopsy", "conditions": "melanoma patient, 400 mg, cycle 1 Day 15"}, "FGF23 [6]": {"system": "FGF23", "test": "FGF23 ELISA in serum of Rowett rats bearing RT112 xenografts", "conditions": "single oral 10, 25, 50 mg/kg; 24 hours post dosing; p<0.01", "protocol": "FGF23 levels were monitored using the FGF23 ELISA kit from Kainos, catalogue number CY-4000, and are expressed in pg/mL. Data are presented as means of n=4, ±SD. Data were compared by one-way Anova post-hoc Dunnett's versus vehicle.\nAnimals. Experiments were performed in female Rowett rats Hsd:RH-Foxlrnu. These athymic Nude-Rats were obtained from Harlan (The Netherlands)\nCompound Formulation and Animal Treatment. […] Vehicle consisted of acetic acid-acetate buffer (pH 4.6)/PEG300 (2:1 v/v). The application volumes were 5 ml/kg.\nBlood and tissue sampling for ex vivo analysis. Blood samples were drawn sublingually at 3 h, 7 h and 24 h post-compound administration. Plasma and as serum were prepared from each blood sample. At the same time points, tumors were dissected and snap frozen in liquid nitrogen."}, "[7]": {"test": "Phase I clinical trial in metastatic renal cell carcinoma patients: PK, toxicity, efficacy"}}, "note": "Read-outs that look alike come from different tables or passages of the source."}
{"smiles": "CN1CCN(c2ccc3nc(-c4c(N)c5c(F)cccc5[nH]c4=O)[nH]c3c2)CC1", "note": "[TKI258]", "values": [{"measurement": "FGF23", "setting": "FGF23 [1]; Patient A, 200 mg daily oral, C1D15", "result": 39.8, "unit": "pg/mL"}, {"measurement": "FGF23", "setting": "FGF23 [1]; Patient A, 200 mg daily oral, C1D26", "result": 24.4, "unit": "pg/mL"}, {"measurement": "FGF23", "setting": "FGF23 [1]; Patient A, 200 mg daily oral, C3D26", "result": 31.8, "unit": "pg/mL"}, {"measurement": "FGF23", "setting": "FGF23 [1]; Patient A, 200 mg daily oral, C6D26", "result": 21.1, "unit": "pg/mL"}, {"measurement": "FGF23", "setting": "FGF23 [1]; Patient A, 200 mg daily oral, C9D26", "result": 39.6, "unit": "pg/mL"}, {"measurement": "FGF23", "setting": "FGF23 [1]; Patient B, 400 mg daily oral, C1D15", "result": 94.1, "unit": "pg/mL"}, {"measurement": "FGF23", "setting": "FGF23 [1]; Patient B, 400 mg daily oral, C3D26", "result": 88.5, "unit": "pg/mL"}, {"measurement": "FGF23", "setting": "FGF23 [1]; Patient B, 400 mg daily oral, C4D26", "result": 141.5, "unit": "pg/mL"}, {"measurement": "FGF23", "setting": "FGF23 [1]; Patient C, 400 mg daily oral, C1D15", "result": 86.5, "unit": "pg/mL"}, {"measurement": "peak of FGF23 (day in first cycle of treatment)", "setting": "FGF23 [1]; melanoma and metastatic renal cell carcinoma patients, 400 mg or 500 mg, preliminary observation", "result": "~15", "unit": "days"}, {"measurement": "mean plasma FGF23 increase over baseline", "setting": "FGF23 [1]; day 15 of the first treatment cycle", "result": 63, "unit": "%"}, {"measurement": "mean plasma FGF23 increase over baseline", "setting": "FGF23 [1]; end of the first treatment cycle", "result": 68, "unit": "%"}, {"measurement": "plasma FGF23 increase over baseline", "setting": "FGF23 [1]; one patient, 400 mg, Cycle 1 Day 15", "result": 98, "unit": "%"}, {"measurement": "plasma FGF23 level", "setting": "FGF23 [1]; one patient, 400 mg, Cycle 1 Day 15 (baseline level 40 pg/ml)", "result": "about 80 pg/ml"}, {"measurement": "Increase of FGF23 levels over basal levels (up to)", "setting": "FGF23 [1]; patient B", "result": "up to 1.96 fold"}, {"measurement": "Increase of FGF23 levels over basal levels (up to)", "setting": "FGF23 [1]; patient B, listed as TK1258", "result": "≤ 1.96", "unit": "fold"}, {"measurement": "Increase of FGF23 levels over basal levels (up to)", "setting": "FGF23 [1]; patient C", "result": "≤ 2.1", "unit": "fold"}, {"measurement": "AUC(0-t)", "setting": "clinical; 400 mg", "result": "~3000", "unit": "ng·h/mL"}, {"measurement": "AUC(0-t)", "setting": "clinical; 500 mg", "result": "~4100", "unit": "ng·h/mL"}, {"measurement": "peak of FGF23 level (day of cycle 1)", "setting": "FGF23 [2]; mRCC patients having increased FGF23", "result": "~15", "unit": "days"}, {"measurement": "increase of FGF23 level compared to the baseline level", "setting": "FGF23 [2]; mRCC patients having increased FGF23, 500 mg/day", "result": "1.35-1.75"}, {"measurement": "plasma FGF23 levels", "setting": "FGF23 [2]; pts from the first 500 mg/day dosing cohort", "result": "Induction of plasma FGF23 levels"}, {"measurement": "FRS2 tyrosine phosphorylation in RT112 tumors", "setting": "[3]", "result": "inhibited FRS2 tyrosine phosphorylation in a dose-dependent manner"}, {"measurement": "serum levels of FGF23 vs vehicle-treated group", "setting": "FGF23 [4]", "result": "statistically significant increased in serum levels of FGF23"}, {"measurement": "pFGFR in tumor biopsy (immunohistochemistry)", "setting": "[5]", "result": "significant pFGFR inhibition"}, {"measurement": "serum levels of FGF23 vs vehicle-treated group", "setting": "FGF23 [6]", "result": "dose-dependent increased in serum levels of FGF23"}, {"measurement": "Preliminary evidence of efficacy (other responses)", "setting": "[7]; mRCC patients", "result": "4 stable disease and 1 dramatic shrinkage/necrosis of some target lesions"}, {"measurement": "minor response (change at C4)", "setting": "[7]; one mRCC patient, C4", "result": "−17", "unit": "%"}]}
